Measurements as given in patent publication US20160220569A1, “CDK4/6 Inhibitor Dosage Formulations For The Protection Of Hematopoietic Stem And Progenitor Cells During Chemotherapy” (G1 Therapeutics, Inc., priority 2015, published 2016).
Read-outs that look alike come from different tables or passages of the source.

Assay: Single escalating dose IV infusion pharmacokinetics in healthy volunteers (noncompartmental)
Type: in vivo, human
Settings: both sexes, human, plasma, iv; for concentration at 24.5 h: read-out: concentration at 24.5 hours after the start of infusion; for concentration at 0.25 h / concentration at 0.5 h / concentration at 0.75 h / concentration at 1 h / concentration at 2.5 h / concentration at 3.5 h / concentration at 8.5 h / concentration at 12.5 h / concentration at 6.5 h: r7-9=Subjects 1-3,r11=Mean,r13=Min,r14=Median,r15=Max,r17=Geometric Mean; for concentration at 0.5 h: Time 0.50 h
Experimental: Forty-five subjects have enrolled in the study.
Analysis of plasma concentration versus time data for calculation of standard pharmacokinetic (PK) parameters following intravenous infusion administration was conducted using Phoenix WinNonlin version 6.3 using a nominal infusion duration and scheduled blood sampling times. Random subject numbers were assigned by the bioanalytical laboratory to retain the blind.
(§1) Analysis of plasma concentration versus time data for calculation of standard pharmacokinetic (PK) parameters following intravenous infusion administration was conducted using Phoenix WinNonlin version 6.3 using a nominal infusion duration and scheduled blood sampling times.
as §1

[1] = 6 mg/m^2, Compound 1 Concentration, Cohort 1, 6 mg/m^2 IV
[2] = 12 mg/m^2, Compound 1 Concentration, Cohort 2, 12 mg/m^2 IV
[3] = 24 mg/m2, Cohort 3, 24 mg/m^2 IV, r6-8=Subjects 1-3,r10=Mean,r12=Min,r13=Median,r14=Max,r16=Geometric Mean

CN1CCN(c2ccc(Nc3ncc4cc5n(c4n3)C3(CCCCC3)CNC5=O)nc2)CC1 [Compound 1, 2′-((5-(4-methylpiperazin-1-yl)pyridin-2-yl)amino)-7′,8′-dihydro-6′H-spiro[cyclohexane-1,9′-pyrazino[1′,2′:1,5]pyrrolo[2,3-d]pyrimidin]-6′-one]
concentration at 24.5 h (6 mg/m^2, Cohort 1, 6 mg/m^2 IV, 1 of 3 subjects measurable): 0.595 ng/mL
concentration at 0.25 h [1]: 49 ng/mL
concentration at 0.5 h [1]: 46.9 ng/mL
concentration at 0.75 h [1]: 16.3 ng/mL
concentration at 1 h (6 mg/m^2, Compound 1 Concentration, Cohort 1, 6 mg/m^2 IV, Time 1.00 h): 11.8 ng/mL
concentration at 2.5 h (6 mg/m^2, Compound 1 Concentration, Cohort 1, 6 mg/m^2 IV, Time 2.50 h): 4.69 ng/mL
concentration at 3.5 h (6 mg/m^2, Compound 1 Concentration, Cohort 1, 6 mg/m^2 IV, Time 3.50 h): 3.75 ng/mL
concentration at 8.5 h (6 mg/m^2, Compound 1 Concentration, Cohort 1, 6 mg/m^2 IV, Time 8.50 h): 1.39 ng/mL
concentration at 12.5 h (6 mg/m^2, Compound 1 Concentration, Cohort 1, 6 mg/m^2 IV, Time 12.50 h): 0.752 ng/mL
AUC(0-inf) (12 mg/m2, Cohort 2, 12 mg/m^2 IV, mean, read-out: AUCinf averaged): 148 ng·h/mL
Cmax (12 mg/m2, Cohort 2, 12 mg/m^2 IV, mean, read-out: Cmax averaged): 122 ng/mL
half-life (12 mg/m2, Cohort 2, 12 mg/m^2 IV, mean, read-out: Half-lives averaged (converted)): 493 min
Tmax (12 mg/m2, Cohort 2, 12 mg/m^2 IV, median, read-out: median Tmax): 30 min
MRT inf (12 mg/m2, Cohort 2, 12 mg/m^2 IV, r6-8=Subjects 1-3,r10=Mean,r12=Min,r13=Median,r14=Max,r16=Geometric Mean): 5.56 h
AUC(0-inf) (12 mg/m2, Cohort 2, 12 mg/m^2 IV, r6-8=Subjects 1-3,r10=Mean,r12=Min,r13=Median,r14=Max,r16=Geometric Mean, read-out: AUCinf): 148 ng·h/mL
Cmax (12 mg/m2, Cohort 2, 12 mg/m^2 IV, r6-8=Subjects 1-3,r10=Mean,r12=Min,r13=Median,r14=Max,r16=Geometric Mean, read-out: Cmax): 122 ng/mL
Tmax (12 mg/m2, Cohort 2, 12 mg/m^2 IV, r6-8=Subjects 1-3,r10=Mean,r12=Min,r13=Median,r14=Max,r16=Geometric Mean, read-out: Tmax): 25 min
half-life (12 mg/m2, Cohort 2, 12 mg/m^2 IV, r6-8=Subjects 1-3,r10=Mean,r12=Min,r13=Median,r14=Max,r16=Geometric Mean, read-out: t½ (converted)): 493 min
half-life (12 mg/m2, Cohort 2, 12 mg/m^2 IV, range over subjects, read-out: Half-lives range): 454 to 533 min
concentration at 24.5 h (12 mg/m^2, Cohort 2, 12 mg/m^2 IV, range over 3 subjects): 0.506 to 1.06 ng/mL
concentration at 0.25 h [2]: 115 ng/mL
concentration at 0.5 h [2]: 102 ng/mL
concentration at 0.75 h [2]: 33.2 ng/mL
concentration at 1 h (12 mg/m^2, Compound 1 Concentration, Cohort 2, 12 mg/m^2 IV, Time 1.0 h): 23.9 ng/mL
concentration at 2.5 h (12 mg/m^2, Compound 1 Concentration, Cohort 2, 12 mg/m^2 IV, Time 2.5 h): 8.75 ng/mL
concentration at 3.5 h (12 mg/m^2, Compound 1 Concentration, Cohort 2, 12 mg/m^2 IV, Time 3.5 h): 7.89 ng/mL
concentration at 6.5 h [2]: 3.99 ng/mL
concentration at 8.5 h (12 mg/m^2, Compound 1 Concentration, Cohort 2, 12 mg/m^2 IV, Time 8.5 h): 2.79 ng/mL
concentration at 12.5 h (12 mg/m^2, Compound 1 Concentration, Cohort 2, 12 mg/m^2 IV, Time 12.5 h): 1.65 ng/mL
AUC(0-inf) (24 mg/m2, Cohort 3, 24 mg/m^2 IV, mean, read-out: AUCinf averaged): 287 ng·h/mL
Cmax (24 mg/m2, Cohort 3, 24 mg/m^2 IV, mean, read-out: Cmax averaged): 252 ng/mL
half-life (24 mg/m2, Cohort 3, 24 mg/m^2 IV, mean, read-out: Half-lives averaged (converted)): 593 min
Tmax (24 mg/m2, Cohort 3, 24 mg/m^2 IV, median, read-out: median Tmax): 30 min
AUC(0-t) [3]: 261 ng·h/mL
MRT inf [3]: 6.65 h
AUC(0-inf) (24 mg/m2, Cohort 3, 24 mg/m^2 IV, r6-8=Subjects 1-3,r10=Mean,r12=Min,r13=Median,r14=Max,r16=Geometric Mean, read-out: AUCinf): 287 ng·h/mL
Cmax (24 mg/m2, Cohort 3, 24 mg/m^2 IV, r6-8=Subjects 1-3,r10=Mean,r12=Min,r13=Median,r14=Max,r16=Geometric Mean, read-out: Cmax): 252 ng/mL
Tmax (24 mg/m2, Cohort 3, 24 mg/m^2 IV, r6-8=Subjects 1-3,r10=Mean,r12=Min,r13=Median,r14=Max,r16=Geometric Mean, read-out: Tmax): 30 min
half-life (24 mg/m2, Cohort 3, 24 mg/m^2 IV, r6-8=Subjects 1-3,r10=Mean,r12=Min,r13=Median,r14=Max,r16=Geometric Mean, read-out: t½ (converted)): 593 min
half-life (24 mg/m2, Cohort 3, 24 mg/m^2 IV, range over subjects, read-out: Half-lives range): 471 to 786 min
concentration at 24.5 h (24 mg/m^2, Cohort 3, 24 mg/m^2 IV, range over 3 subjects): 0.87 to 2.91 ng/mL
concentration at 1 h (24 mg/m^2, Compound 1 Concentration, Cohort 3, 24 mg/m^2 IV, Time 1.0 h): 39.2 ng/mL
concentration at 2.5 h (24 mg/m^2, Compound 1 Concentration, Cohort 3, 24 mg/m^2 IV, Time 2.5 h): 15 ng/mL
concentration at 3.5 h (24 mg/m^2, Compound 1 Concentration, Cohort 3, 24 mg/m^2 IV, Time 3.5 h): 11.6 ng/mL
concentration at 6.5 h (24 mg/m^2, Compound 1 Concentration, Cohort 3, 24 mg/m^2 IV): 6.7 ng/mL
concentration at 8.5 h (24 mg/m^2, Compound 1 Concentration, Cohort 3, 24 mg/m^2 IV, Time 8.5 h): 4.91 ng/mL
AUC(0-inf) (48 mg/m2, Cohort 4, 48 mg/m^2 IV, mean, read-out: AUCinf averaged): 499 ng·h/mL
